From PubChem BioAssay AID1963829 (Molecular Pharmacology Branch, DTP, NCI, 2024)
pIC50: −log10 of the molar value.

Tested on: 935938-334-R-J1-PDC complex spheroid viability
Assay: Anticancer human tumor 935938-334-R-J1-PDC patient-derived small intestine adenocarcinoma cell line growth inhibition [POLQ]
Conditions: for pIC50: curve of first compound; for viability, T/C: stronger effect = lower value
Method in brief: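 Three-cell-type spheroids modelling solid tumor plus stroma served as the readout system; POL inhibitors were tested individually and in combination, concentration ranges set by clinical Cmax where known.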

[1] = second compound 0.0316 µM, first compound 0.0316 µM
[2] = second compound 0.0316 µM, first compound 0.1 µM
[3] = second compound 0.0316 µM, first compound 0.316 µM
[4] = second compound 0.0316 µM, first compound 1 µM
[5] = second compound 0.0316 µM, first compound 3.16 µM
[6] = second compound 0.0316 µM, first compound 10 µM
[7] = second compound 0.1 µM, first compound 0.0316 µM
[8] = second compound 0.1 µM, first compound 0.1 µM
[9] = second compound 0.1 µM, first compound 0.316 µM
[10] = second compound 0.1 µM, first compound 1 µM
[11] = second compound 0.1 µM, first compound 3.16 µM
[12] = second compound 0.1 µM, first compound 10 µM
[13] = second compound 0.316 µM, first compound 0.0316 µM
[14] = second compound 0.316 µM, first compound 0.1 µM
[15] = second compound 0.316 µM, first compound 0.316 µM
[16] = second compound 0.316 µM, first compound 1 µM
[17] = second compound 0.316 µM, first compound 3.16 µM
[18] = second compound 0.316 µM, first compound 10 µM
[19] = second compound 1 µM, first compound 0.0316 µM
[20] = second compound 1 µM, first compound 0.1 µM
[21] = second compound 1 µM, first compound 0.316 µM
[22] = second compound 1 µM, first compound 1 µM
[23] = second compound 1 µM, first compound 3.16 µM
[24] = second compound 1 µM, first compound 10 µM
[25] = second compound 3.16 µM, first compound 0.0316 µM
[26] = second compound 3.16 µM, first compound 0.1 µM
[27] = second compound 3.16 µM, first compound 0.316 µM
[28] = second compound 3.16 µM, first compound 1 µM
[29] = second compound 3.16 µM, first compound 3.16 µM
[30] = second compound 3.16 µM, first compound 10 µM
[31] = second compound 10 µM, first compound 0.0316 µM
[32] = second compound 10 µM, first compound 0.1 µM
[33] = second compound 10 µM, first compound 0.316 µM
[34] = second compound 10 µM, first compound 1 µM
[35] = second compound 10 µM, first compound 3.16 µM
[36] = second compound 10 µM, first compound 10 µM
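Further: spheroids exposed to drugs for seven days before viability read.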
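Wherever viability, T/C is given: 100% = DMSO vehicle control wells.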

## CCCS(=O)(=O)Nc1ccc(F)c(C(=O)c2c[nH]c3ncc(-c4ccc(Cl)cc4)cc23)c1F + COC1C(OC(N)=O)C(O)C(Oc2ccc3c(O)c(NC(=O)c4ccc(O)c(CC=C(C)C)c4)c(=O)oc3c2C)OC1(C)C
Second compound 0.0316 µM
  pIC50: 5.04
Second compound 0.1 µM
  pIC50: 5.07
Second compound 0.316 µM
  pIC50: 5.03
Second compound 1 µM
  pIC50: 5.07
Second compound 3.16 µM
  pIC50: 5.01
Second compound 10 µM
  pIC50: 5.00
[1]
  viability, T/C: 96.1%
[2]
  viability, T/C: 142%
[3]
  viability, T/C: 118%
[4]
  viability, T/C: 111%
[5]
  viability, T/C: 101%
[6]
  viability, T/C: 45.4%
[7]
  viability, T/C: 113%
[8]
  viability, T/C: 80.5%
[9]
  viability, T/C: 103%
[10]
  viability, T/C: 110%
[11]
  viability, T/C: 134%
[12]
  viability, T/C: 40.2%
[13]
  viability, T/C: 73.6%
[14]
  viability, T/C: 98.8%
[15]
  viability, T/C: 119%
[16]
  viability, T/C: 121%
[17]
  viability, T/C: 125%
[18]
  viability, T/C: 45.9%
[19]
  viability, T/C: 116%
[20]
  viability, T/C: 117%
[21]
  viability, T/C: 101%
[22]
  viability, T/C: 131%
[23]
  viability, T/C: 111%
[24]
  viability, T/C: 40.1%
[25]
  viability, T/C: 114%
[26]
  viability, T/C: 107%
[27]
  viability, T/C: 120%
[28]
  viability, T/C: 147%
[29]
  viability, T/C: 111%
[30]
  viability, T/C: 48.7%
[31]
  viability, T/C: 104%
[32]
  viability, T/C: 97.6%
[33]
  viability, T/C: 130%
[34]
  viability, T/C: 129%
[35]
  viability, T/C: 127%
[36]
  viability, T/C: 49.6%

## COc1cc2cc(C(=O)CCC(=O)O)sc2cc1OC + COC1C(OC(N)=O)C(O)C(Oc2ccc3c(O)c(NC(=O)c4ccc(O)c(CC=C(C)C)c4)c(=O)oc3c2C)OC1(C)C
Second compound 0.0316 µM
  pIC50: < 5.00
Second compound 0.1 µM
  pIC50: < 5.00
Second compound 0.316 µM
  pIC50: < 5.00
Second compound 1 µM
  pIC50: < 5.00
Second compound 3.16 µM
  pIC50: < 5.00
Second compound 10 µM
  pIC50: < 5.00
[1]
  viability, T/C: 101%
[2]
  viability, T/C: 98.3%
[3]
  viability, T/C: 113%
[4]
  viability, T/C: 83.7%
[5]
  viability, T/C: 108%
[6]
  viability, T/C: 110%
[7]
  viability, T/C: 103%
[8]
  viability, T/C: 118%
[9]
  viability, T/C: 97.9%
[10]
  viability, T/C: 110%
[11]
  viability, T/C: 92.4%
[12]
  viability, T/C: 135%
[13]
  viability, T/C: 128%
[14]
  viability, T/C: 131%
[15]
  viability, T/C: 109%
[16]
  viability, T/C: 98%
[17]
  viability, T/C: 112%
[18]
  viability, T/C: 105%
[19]
  viability, T/C: 99.2%
[20]
  viability, T/C: 98.3%
[21]
  viability, T/C: 90.8%
[22]
  viability, T/C: 112%
[23]
  viability, T/C: 108%
[24]
  viability, T/C: 83.1%
[25]
  viability, T/C: 106%
[26]
  viability, T/C: 96.1%
[27]
  viability, T/C: 96.9%
[28]
  viability, T/C: 101%
[29]
  viability, T/C: 109%
[30]
  viability, T/C: 95.4%
[31]
  viability, T/C: 171%
[32]
  viability, T/C: 118%
[33]
  viability, T/C: 98%
[34]
  viability, T/C: 101%
[35]
  viability, T/C: 80.8%
[36]
  viability, T/C: 109%

## CCc1c2c(nc3ccc(O)cc13)-c1cc3c(c(=O)n1C2)COC(=O)[C@]3(O)CC + Nc1ccc(C#CCN(C(=O)Cc2ncc(C(F)(F)F)cc2C(F)(F)F)c2ccc(F)cc2)nn1
Second compound 0.0316 µM
  pIC50: 7.69
Second compound 0.1 µM
  pIC50: 7.77
Second compound 0.316 µM
  pIC50: 7.74
Second compound 1 µM
  pIC50: 7.65
Second compound 3.16 µM
  pIC50: 7.82
Second compound 10 µM
  pIC50: 7.66
Second compound 0.0316 µM, first compound 0.00316 µM
  viability, T/C: 83.8%
Second compound 0.0316 µM, first compound 0.01 µM
  viability, T/C: 61.7%
[1]
  viability, T/C: 44.2%
[2]
  viability, T/C: 28.6%
[3]
  viability, T/C: 31.6%
[4]
  viability, T/C: 29.2%
Second compound 0.1 µM, first compound 0.00316 µM
  viability, T/C: 93.6%
Second compound 0.1 µM, first compound 0.01 µM
  viability, T/C: 64.3%
[7]
  viability, T/C: 33.8%
[8]
  viability, T/C: 29.6%
[9]
  viability, T/C: 34.7%
[10]
  viability, T/C: 32%
Second compound 0.316 µM, first compound 0.00316 µM
  viability, T/C: 108%
Second compound 0.316 µM, first compound 0.01 µM
  viability, T/C: 65.8%
[13]
  viability, T/C: 35.1%
[14]
  viability, T/C: 36.2%
[15]
  viability, T/C: 30.6%
[16]
  viability, T/C: 28.9%
Second compound 1 µM, first compound 0.00316 µM
  viability, T/C: 109%
Second compound 1 µM, first compound 0.01 µM
  viability, T/C: 81.8%
[19]
  viability, T/C: 36.1%
[20]
  viability, T/C: 32.6%
[21]
  viability, T/C: 34.4%
[22]
  viability, T/C: 30.1%
Second compound 3.16 µM, first compound 0.00316 µM
  viability, T/C: 93.2%
Second compound 3.16 µM, first compound 0.01 µM
  viability, T/C: 51.8%
[25]
  viability, T/C: 43.9%
[26]
  viability, T/C: 40.4%
[27]
  viability, T/C: 30.8%
[28]
  viability, T/C: 30.6%
Second compound 10 µM, first compound 0.00316 µM
  viability, T/C: 88.8%
Second compound 10 µM, first compound 0.01 µM
  viability, T/C: 67.9%
[31]
  viability, T/C: 41%
[32]
  viability, T/C: 37.3%
[33]
  viability, T/C: 31%
[34]
  viability, T/C: 32.2%
